Results as given in patent US6706686B2, “Inhibition of histone deacetylase as a treatment for cardiac hypertrophy” (The Regents of the University of Colorado, priority 2001, dated 2004).
Entries after “also recorded” stand apart in the source; their conditions may differ.

Legend:
mouse model = details: Takahashi et al, 1996; cited from earlier work
[1] = tested on: ANF, αSK-actin, αMyHC, βMyHC RNA in cardiomyocytes; experiment: RNA dot blot of fetal gene program; type: cell-based, rat
Method: FIGS. 5A-B. Treatment of cardiomyocytes with HDAC inhibitors blocks the fetal gene program associated with cardiomyocyte hypertrophy. […] The graphs represent three or more independent experiments.
Dot Blot analysis. Total RNA was isolated from cardiomyocytes that were either untreated, treated with phenylephrine, treated with TSA, or co-treated with phenylephrine and TSA. One microgram of RNA was blotted onto Nitrocellulose (Bio-Rad, Hercules, Calif.) and hybridized at 50° C. for 14 hrs with end-labeled oligos. (ANF, 5′-[…]-3, SEQ ID NO 1; αSK actin5′-[…]-3′, SEQ ID NO2; αMyHC,5′[…]-3′, SEQ ID NO 3; βMyHC5′-[…]-3′, SEQ ID NO 4; GAPDH5′-[…]-3′, SEQ ID NO 5). The blots were washed twice in 2×SSC/0.5% SDS solution and exposed to film (Kodak, Rochester, N.Y.) or phosphoimager (Amersham Bioscience, Sunnyvale, Calif.). The intensity of the hybridization of the probes was measured using ImageQuant® (Amersham Bioscience, Sunnyvale, Calif.).

ANF locus / NRSE = details: prior data; cited from earlier work

## CC(/C=C/C(=O)NO)=C\[C@@H](C)C(=O)c1ccc(N(C)C)cc1 [TSA, Trichostatin A]
Mouse model
  immunosuppression: induces immunsuppression
[1]; TSA treatment
  αMyHC expression: induced the expression of αMyHC; also recorded: stimulated the expression of αMyHC
[1]; phenylephrine 100 μM, TSA 85 nM, sodium butyrate 5 mM, HC-toxin 5 ng/ml
  phenylephrine-induced endogenous ANF RNA expression: prevented the phenylephrine-induced ANF response; also recorded: blocks the accumulation of ANF message
[1]; phenylephrine co-treatment
  phenylephrine-induced αSK-actin expression: suppression of other genes activated by the hypertrophic stimulant; also recorded: lack of gene activation
  phenylephrine-induced βMyHC expression: down-regulating the fetal myosin chain isoform; also recorded: prevented the activation of βMyHC
ANF locus / NRSE
  ANF expression at low dose: can induce the ANF expression
